Reference: PMC9343874, “Comparative Pharmacokinetics of Cinobufacini Capsule and Injection by UPLC-MS/MS” (Frontiers in Pharmacology, 2022)
Read-outs that look alike come from different tables or passages of the source.

Key:
[1] = Pharmacokinetic study in rats after oral administration of cinobufacini capsule (UPLC-MS/MS of plasma); assay type: in vivo, rat; conditions: for AUC(0-inf) / AUC(0-t) / Cmax / Tmax / CL/F / MRT last / MRT inf / half-life / Vd/F: male, Sprague-Dawley, in vivo, rat plasma, mean ± SD, n = 6; for CL/F: read-out: CLz/F (converted); for MRT last: read-out: MRT0-t; for MRT inf: read-out: MRT0-∞; for half-life: read-out: T1/2z (converted); for Vd/F: read-out: Vz/F
Outline: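 Male SD rats (200–220 g), fasted 12 h, six per group; cinobufacini capsule given orally at three doses or injection intravenously. Retro-orbital plasma sampled 0.05–10 h, extracted with ethyl acetate plus internal standard, quantified by UPLC-MS/MS (ESI+, MRM); parameters calculated by non-compartmental-style software as mean ± SD.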

[2] = Pharmacokinetic study in rats after intravenous administration of cinobufacini injection (UPLC-MS/MS of plasma); assay type: in vivo, rat; conditions: for concentrations in most rat plasma samples relative to LLOQ: after intravenous administration of cinobufacini injection, pharmacokinetic parameters could not be calculated; for detection in rat plasma: cinobufacini injection group, intravenous
Description: Male Sprague–Dawley rats (weighing 200–220 g) of SPF grade were offered by Sippr/BK laboratory Animal, Corp., Ltd. (Shanghai, China) and fed in the Laboratory Animal Center of the Shanghai University of Traditional Chinese Medicine. All the rats were kept under environmentally controlled conditions with constant temperature (22–24°C) and humidity (60–65%). The animal experiment program in the present research was approved by the Animal Committee of the Shanghai University of Traditional Chinese Medicine (PZSHUTCM210618012).
An Agilent 1290 liquid chromatographic system includes a G4220A quaternary pump, a G1326C column incubator, a G4226A automatic sampler, and a G1330B degasser. The column temperature was set to 35°C. A measure of 5 µL of samples were separated in an Agilent SB-C18 column (2.1 mm ×50 mm, 1.8 μm) and eluted at 0.3 ml/min, followed by gradient elution with water (0.1% V/V formic acid) (A) and acetonitrile (B) (0–1 min, 20%–20% B; 1–3.5 min, 20%–80% B; 4–4.1 min, 80%-20% B; 4.1–6 min, 20% B). The total run time was 6 minutes.
An Agilent 1290 Infinity series UPLC system was combined with an Agilent 6460 series triple quadrupole mass spectrometer (Agilent Technologies, Santa Clara, CA, United States) to quantify all 13 analytes in an ESI-positive ionization mode. Quantitative analysis was performed in an MRM mode. The mass spectrum conditions were as follows: capillary voltage, 4000V; drying gas (N2), gas flow rate: 10 L/min; sprayer, 30 psi; gas temperature 350°C; The delta EMV (+) 200 V; collision gas (N2); dwell time, 25 ms. Agilent’s MassHunter Workstation software was used for data collection, peak area calculation, and quantitative analysis.
A measure of 50 µL of the plasma sample was mixed with 10 µL of the internal standard solution (345 ng/ml) in a 1.5-ml centrifuge tube and vortexed for 5 min. The samples were extracted by 500 µL of ethyl acetate for 5 min and centrifuged at 4°C for 10 min (18000 rpm). All the supernatants were collected into another 1.5-ml centrifuge tube, dried under a gentle stream of nitrogen at 37°C, and then added with 50 µL of 80% methanol for resolution. The resolution samples were centrifuged at 4°C for 10 min (18000 rpm), and 5 µL supernatant was extracted and injected for analysis.
Twenty-four male Sprague–Dawley rats (weigh 200–220 g) were divided into four groups with six rats in each group randomly, including three capsule groups at three different doses and one injection group. In the instructions for cinobufacini capsule and injection, the clinical dosage for adults is 2 g per 70 kg orally and 20 ml per 70 kg intravenously, converting to rat doses of 180 mg/kg and 1.8 ml/kg, respectively.
In the pre-experiments, we compared cinobufacini capsule of 180 mg/kg (one-time clinical dose) and 900 mg/kg (five times of clinical dose) and Cinobufacini injection of 1.8 ml/kg, but concentrations of some compounds in plasma were too low and difficult to be quantified. […] The experimental rats were led to fast the night and were free to get access to water for 12 h before the pharmacokinetic study. After administration, blood samples (approximately 150 μL) of rats were collected via retro-orbital sinus into heparinized centrifuge tubes at 0.05, 0.083, 0.25, 0.5, 0.75, 1, 2, 4, 6, 8, and 10 h. After centrifugation at 5,000 rpm for 10 min, the plasma was transferred to 1.5-ml polypropylene tubes and stored at −80°C until UPLC-MS/MS analysis.
GraphPad Prism software (version 8.0.2) was used to draw the mean plasma concentration–time curves of all analytes. The pharmacokinetic parameters were calculated by DAS 3.2.8 software. Meanwhile, the pharmacokinetic data on rats were presented as mean ± standard deviation (SD). Differences of pharmacokinetic parameters between groups were analyzed by the t-test using SPSS software (version 26.0). Differences were considered significant statistically when the p-values were <0.05 and very significant statistically when the p-values were <0.01.

[3] = Stability of analytes in rat plasma QC samples under storage conditions; assay type: physicochemical; conditions: n = 6; for Stability during 24 h at 4°C, RE: post-treatment storage in autosampler; for −80°C for 30 days, RE / Three freeze–thaw cycles, RE: rat plasma; for −80°C for 30 days, RE: long-term; for Three freeze–thaw cycles, RE: −80°C to room temperature
Outline: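 QC samples at low, medium and high levels (n=6) were tested after 24 h in the autosampler at 4 °C, after three freeze–thaw cycles from −80 °C to room temperature, and after 30 days at −80 °C. Concentrations were read from daily calibration curves. Stability was accepted when RE and RSD were within ±15% of nominal.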

[4] = oral cinobufacini capsule 0.9 g/kg (low)
[5] = oral cinobufacini capsule 1.8 g/kg (medium)
[6] = oral cinobufacini capsule 3.6 g/kg (high)
[7] = high QC level (249.58–250.28 ng/ml)
[8] = medium QC level (49.92–50.06 ng/ml)

Structure (SMILES) | AUC(0-inf) [1, 4] [ng·h/mL] | AUC(0-t) [1, 4] [ng·h/mL] | Cmax [1, 4] [ng/mL] | Tmax [1, 4] [h] | CL/F [1, 4] [mL/min/kg] | MRT last [1, 4] [h] | MRT inf [1, 4] [h] | half-life [1, 4] [h] | Vd/F [1, 4] [L/kg] | AUC(0-inf) [1, 5] [ng·h/mL] | AUC(0-t) [1, 5] [ng·h/mL] | Cmax [1, 5] [ng/mL] | Tmax [1, 5] [h] | CL/F [1, 5] [mL/min/kg] | MRT last [1, 5] [h] | MRT inf [1, 5] [h] | half-life [1, 5] [h] | Vd/F [1, 5] [L/kg] | AUC(0-inf) [1, 6] [ng·h/mL] | AUC(0-t) [1, 6] [ng·h/mL] | also measured
C[C@]12CC[C@H](O)C[C@H]1CC[C@@H]1[C@@H]2CC[C@]2(C)[C@@H](c3ccc(=O)oc3)CC[C@]12O [BF, bufalin] | 143 ± 79.4 | 139 ± 71.9 | 74.7 ± 30.7 | 0.25 | 26.2 | 2.04 ± 0.62 | 2.19 ± 0.9 | 1.09 ± 0.91 | 1.81 ± 0.56 | 317 ± 134 | 310 ± 131 | 189 ± 43.2 | 0.43 ± 0.12 | 21.5 | 1.45 ± 0.24 | 1.59 ± 0.49 | 1.2 ± 0.62 | 2.15 ± 1.21 | 461 ± 90.4 | 457 ± 91.2 | Cmax [1, 6]: 322 ± 55.5 ng/mL; Tmax [1, 6]: 0.46 ± 0.17 h; CL/F [1, 6]: 27.3 mL/min/kg; MRT last [1, 6]: 1.39 ± 0.43 h; MRT inf [1, 6]: 1.49 ± 0.55 h; half-life [1, 6]: 1.27 ± 0.72 h; Vd/F [1, 6]: 3.02 ± 2.01 L/kg; time to reach maximum plasma concentration (Cmax) ([1]; rats, after gavage administration of cinobufacini capsule): ≤ 60 min; concentrations in most rat plasma samples relative to LLOQ [2]: far below the LLOQs; detection in rat plasma [2]: could be detected; Stability during 24 h at 4°C, RE [3, 7]: −8.5%; Stability during 24 h at 4°C, RE ([3]; low QC level (4.99–5.00 ng/ml)): 3.3%; Stability during 24 h at 4°C, RE [3, 8]: −8.6%; −80°C for 30 days, RE [3, 7]: 1.4%; −80°C for 30 days, RE ([3]; low QC level (4.99–5.00 ng/ml)): 8.7%; −80°C for 30 days, RE [3, 8]: −12.6%; Three freeze–thaw cycles, RE [3, 7]: 0.8%; Three freeze–thaw cycles, RE ([3]; low QC level (4.99–5.00 ng/ml)): −7.7%; Three freeze–thaw cycles, RE [3, 8]: −10.1%
C[C@]12CC[C@H](O)C[C@H]1CC[C@@H]1[C@@H]2C(=O)[C@@H](O)[C@]2(C)[C@@H](c3ccc(=O)oc3)CC[C@]12O [PBG, pseudobufarenogin] | 13.8 ± 5.4 | 13.3 ± 4.42 | 9.3 ± 3.04 | 0.25 | 33.5 | 2.4 ± 0.63 | 2.76 ± 1 | 1.52 ± 0.98 | 7.15 ± 2.16 | 28.6 ± 6.25 | 28.4 ± 6.26 | 24.5 ± 7.32 | 0.4 ± 0.22 | 30.8 | 1.49 ± 0.08 | 1.54 ± 0.11 | 1.03 ± 0.61 | 2.65 ± 1.51 | 47.7 ± 9.78 | 47.3 ± 9.4 | Cmax [1, 6]: 42.8 ± 10.2 ng/mL; Tmax [1, 6]: 0.32 ± 0.12 h; CL/F [1, 6]: 36.7 mL/min/kg; MRT last [1, 6]: 1.47 ± 0.39 h; MRT inf [1, 6]: 1.57 ± 0.39 h; half-life [1, 6]: 1.96 ± 0.67 h; Vd/F [1, 6]: 5.65 ± 1.61 L/kg; concentrations in most rat plasma samples relative to LLOQ [2]: far below the LLOQs; detection in rat plasma [2]: could be detected; Stability during 24 h at 4°C, RE [3, 7]: 10.2%; Stability during 24 h at 4°C, RE ([3]; low QC level (4.99–5.00 ng/ml)): 6.6%; Stability during 24 h at 4°C, RE [3, 8]: 12.0%; −80°C for 30 days, RE [3, 7]: 4.7%; −80°C for 30 days, RE ([3]; low QC level (4.99–5.00 ng/ml)): 8.3%; −80°C for 30 days, RE [3, 8]: 7.5%; Three freeze–thaw cycles, RE [3, 7]: 7.7%; Three freeze–thaw cycles, RE ([3]; low QC level (4.99–5.00 ng/ml)): 4.4%; Three freeze–thaw cycles, RE [3, 8]: 13.3%
